# Results as given in ChEMBL document CHEMBL4804284.
# Key:
# Parameters in all cases: scale not given: the % may be the effect or the level left
# [1] = molecular target: Serine/threonine-protein kinase tousled-like 2 (Homo sapiens) (UniProt Q86UE8); assay: Inhibition of DNA-tagged human TLK2 assessed as percent of control at 50000 nM by qPCR analysis relative to control
# [2] = molecular target: Mitogen-activated protein kinase kinase kinase kinase 1 (Homo sapiens) (UniProt Q92918); assay: Inhibition of DNA-tagged human HPK1 assessed as percent of control at 50000 nM by qPCR analysis relative to control
# [3] = molecular target: cAMP-dependent protein kinase catalytic subunit beta (Homo sapiens) (UniProt P22694); assay: Inhibition of DNA-tagged human PKAC-beta assessed as percent of control at 50000 nM by qPCR analysis relative to control
# [4] = molecular target: Activin receptor type-2B (Homo sapiens) (UniProt Q13705); assay: Inhibition of DNA-tagged human ACVR2B assessed as percent of control at 50000 nM by qPCR analysis relative to control
# [5] = system: Fibroblast growth factor receptor 3 (Homo sapiens), P22607 [G697C]; assay: Inhibition of DNA-tagged human FGFR3 G697C mutant assessed as percent of control at 50000 nM by qPCR analysis relative to control
# [6] = molecular target: Serine/threonine-protein kinase RIO3 (Homo sapiens) (UniProt O14730); assay: Inhibition of DNA-tagged human RIOK3 assessed as percent of control at 50000 nM by qPCR analysis relative to control
# [7] = molecular target: Mitogen-activated protein kinase kinase kinase 13 (Homo sapiens) (UniProt O43283); assay: Inhibition of DNA-tagged human LZK assessed as percent of control at 50000 nM by qPCR analysis relative to control
# [8] = molecular target: Serine/threonine-protein kinase Nek4 (Homo sapiens) (UniProt P51957); assay: Inhibition of DNA-tagged human NEK4 assessed as percent of control at 50000 nM by qPCR analysis relative to control
# Sequence of Serine/threonine-protein kinase Nek4 (Homo sapiens) (P51957 whole entry, looked up): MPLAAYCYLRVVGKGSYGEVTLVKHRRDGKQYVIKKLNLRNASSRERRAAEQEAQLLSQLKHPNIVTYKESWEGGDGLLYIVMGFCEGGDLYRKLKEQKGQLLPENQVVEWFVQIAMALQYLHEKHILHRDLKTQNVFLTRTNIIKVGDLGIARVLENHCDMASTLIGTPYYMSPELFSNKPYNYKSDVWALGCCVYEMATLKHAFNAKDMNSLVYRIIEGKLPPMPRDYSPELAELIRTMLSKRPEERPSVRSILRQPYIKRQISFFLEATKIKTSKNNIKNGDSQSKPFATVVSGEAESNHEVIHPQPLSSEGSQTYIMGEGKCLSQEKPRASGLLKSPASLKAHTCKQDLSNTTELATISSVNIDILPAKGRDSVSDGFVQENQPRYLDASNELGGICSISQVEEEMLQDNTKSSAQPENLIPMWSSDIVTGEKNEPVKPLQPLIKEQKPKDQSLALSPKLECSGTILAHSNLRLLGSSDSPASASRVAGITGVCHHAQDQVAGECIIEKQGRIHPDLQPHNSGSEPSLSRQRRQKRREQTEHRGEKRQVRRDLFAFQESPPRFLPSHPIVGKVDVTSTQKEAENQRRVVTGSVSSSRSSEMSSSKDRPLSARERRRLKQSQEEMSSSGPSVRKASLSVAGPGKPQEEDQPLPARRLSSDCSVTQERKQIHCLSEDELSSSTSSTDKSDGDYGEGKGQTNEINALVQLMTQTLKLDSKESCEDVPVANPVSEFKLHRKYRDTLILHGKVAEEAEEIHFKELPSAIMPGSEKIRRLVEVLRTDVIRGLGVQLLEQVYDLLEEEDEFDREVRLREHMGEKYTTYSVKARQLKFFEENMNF
# [9] = molecular target: Rhodopsin kinase GRK1 (Homo sapiens) (UniProt Q15835); assay: Inhibition of DNA-tagged human GRK1 assessed as percent of control at 50000 nM by qPCR analysis relative to control
# Sequence of Rhodopsin kinase GRK1 (Homo sapiens) (Q15835 whole entry): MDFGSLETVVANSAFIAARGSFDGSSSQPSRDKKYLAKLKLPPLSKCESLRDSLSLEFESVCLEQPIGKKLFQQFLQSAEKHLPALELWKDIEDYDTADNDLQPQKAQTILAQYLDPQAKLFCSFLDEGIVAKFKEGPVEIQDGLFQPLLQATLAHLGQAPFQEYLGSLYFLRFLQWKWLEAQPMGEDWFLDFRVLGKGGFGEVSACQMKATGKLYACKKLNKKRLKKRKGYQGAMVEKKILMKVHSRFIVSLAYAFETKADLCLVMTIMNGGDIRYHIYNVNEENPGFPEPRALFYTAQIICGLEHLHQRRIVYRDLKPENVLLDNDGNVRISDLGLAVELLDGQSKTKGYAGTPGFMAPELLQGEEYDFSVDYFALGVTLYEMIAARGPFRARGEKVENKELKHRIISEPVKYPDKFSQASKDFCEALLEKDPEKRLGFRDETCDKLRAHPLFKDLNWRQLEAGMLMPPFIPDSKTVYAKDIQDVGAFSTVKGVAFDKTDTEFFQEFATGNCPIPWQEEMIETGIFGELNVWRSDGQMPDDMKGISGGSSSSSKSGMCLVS
# [10] = system: Mast/stem cell growth factor receptor Kit (Homo sapiens), P10721 [V559D]; assay: Inhibition of DNA-tagged human KIT V559D mutant assessed as percent of control at 50000 nM by qPCR analysis relative to control
# Sequence of Mast/stem cell growth factor receptor Kit (Homo sapiens), P10721 [V559D] (P10721 whole entry V559D): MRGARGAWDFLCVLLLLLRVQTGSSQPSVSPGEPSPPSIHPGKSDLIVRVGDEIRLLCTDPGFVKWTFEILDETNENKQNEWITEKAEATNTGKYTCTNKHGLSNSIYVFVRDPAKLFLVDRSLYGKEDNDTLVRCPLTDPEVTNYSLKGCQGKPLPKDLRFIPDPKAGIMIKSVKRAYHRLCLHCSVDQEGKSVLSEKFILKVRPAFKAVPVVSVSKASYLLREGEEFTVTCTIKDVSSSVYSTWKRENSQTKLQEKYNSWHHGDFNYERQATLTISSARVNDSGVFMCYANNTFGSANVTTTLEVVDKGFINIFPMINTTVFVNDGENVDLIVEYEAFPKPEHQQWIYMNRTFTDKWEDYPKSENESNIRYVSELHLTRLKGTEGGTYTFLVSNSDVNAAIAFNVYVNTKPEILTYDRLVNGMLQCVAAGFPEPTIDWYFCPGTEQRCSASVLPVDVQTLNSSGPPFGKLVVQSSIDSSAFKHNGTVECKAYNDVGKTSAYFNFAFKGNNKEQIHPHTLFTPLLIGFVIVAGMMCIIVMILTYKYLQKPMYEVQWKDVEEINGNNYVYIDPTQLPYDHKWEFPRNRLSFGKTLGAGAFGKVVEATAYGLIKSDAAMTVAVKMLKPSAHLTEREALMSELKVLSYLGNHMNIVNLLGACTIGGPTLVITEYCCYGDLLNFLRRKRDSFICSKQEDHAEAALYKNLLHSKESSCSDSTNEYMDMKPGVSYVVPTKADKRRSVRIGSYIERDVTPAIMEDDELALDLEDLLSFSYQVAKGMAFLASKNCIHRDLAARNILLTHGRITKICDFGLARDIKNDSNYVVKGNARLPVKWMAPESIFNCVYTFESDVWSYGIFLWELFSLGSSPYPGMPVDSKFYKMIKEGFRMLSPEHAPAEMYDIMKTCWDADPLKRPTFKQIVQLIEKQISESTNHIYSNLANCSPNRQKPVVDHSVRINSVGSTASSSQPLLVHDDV
# [11] = molecular target: Calcium/calmodulin-dependent protein kinase type II subunit delta (Homo sapiens) (UniProt Q13557); assay: Inhibition of DNA-tagged human CAMK2D assessed as percent of control at 50000 nM by qPCR analysis relative to control
# [12] = molecular target: Serine/threonine-protein kinase ULK3 (Homo sapiens) (UniProt Q6PHR2); assay: Inhibition of DNA-tagged human ULK3 assessed as percent of control at 50000 nM by qPCR analysis relative to control
# [13] = molecular target: Insulin-like growth factor 1 receptor (Homo sapiens) (UniProt P08069); assay: Inhibition of DNA-tagged human IGF1R assessed as percent of control at 50000 nM by qPCR analysis relative to control
# [14] = molecular target: Serine/threonine-protein kinase Nek5 (Homo sapiens) (UniProt Q6P3R8); assay: Inhibition of DNA-tagged human NEK5 assessed as percent of control at 50000 nM by qPCR analysis relative to control
# [15] = system: Receptor-type tyrosine-protein kinase FLT3 (Homo sapiens), P36888 [R834Q]; assay: Inhibition of DNA-tagged human FLT3 R834Q mutant assessed as percent of control at 50000 nM by qPCR analysis relative to control
# [16] = molecular target: Cyclin-dependent kinase 13 (Homo sapiens) (UniProt Q14004); assay: Inhibition of DNA-tagged human CDC2L5 assessed as percent of control at 50000 nM by qPCR analysis relative to control
# [17] = molecular target: Serine/threonine-protein kinase 17B (Homo sapiens) (UniProt O94768); assay: Inhibition of DNA-tagged human DRAK2 assessed as percent of control at 50000 nM by qPCR analysis relative to control
# [18] = system: Tyrosine-protein kinase ABL1 (Homo sapiens), P00519 [UNDEFINED MUTATION]; assay: Inhibition of DNA-tagged non-phosphorylated human ABL1 […] mutant assessed as percent of control at 50000 nM by qPCR analysis relative to control
# [19] = system: Mast/stem cell growth factor receptor Kit (Homo sapiens), P10721 [V559D,T670I]; assay: Inhibition of DNA-tagged human KIT V559D/T670I double mutant assessed as percent of control at 50000 nM by qPCR analysis relative to control
# Sequence of Mast/stem cell growth factor receptor Kit (Homo sapiens), P10721 [V559D,T670I] (P10721 whole entry V559D/T670I): as the sequence (P10721 whole entry V559D) above, with T670I counted along it
# [20] = molecular target: Ephrin type-B receptor 2 (Homo sapiens) (UniProt P29323); assay: Inhibition of DNA-tagged human EPHB2 assessed as percent of control at 50000 nM by qPCR analysis relative to control
# [21] = molecular target: Discoidin domain-containing receptor 2 (Homo sapiens) (UniProt Q16832); assay: Inhibition of DNA-tagged human DDR2 assessed as percent of control at 50000 nM by qPCR analysis relative to control
# [22] = molecular target: Casein kinase I isoform alpha (Homo sapiens) (UniProt P48729); assay: Inhibition of DNA-tagged human CSNK1A1 assessed as percent of control at 50000 nM by qPCR analysis relative to control
# [23] = molecular target: Myosin light chain kinase 2, skeletal/cardiac muscle (Homo sapiens) (UniProt Q9H1R3); assay: Inhibition of DNA-tagged human MYLK2 assessed as percent of control at 50000 nM by qPCR analysis relative to control
# [24] = molecular target: Non-receptor tyrosine-protein kinase TYK2 (Homo sapiens) (UniProt P29597); assay: Inhibition of DNA-tagged human TYK2 JH1 catalytic domain assessed as percent of control at 50000 nM by qPCR analysis relative to control
# Sequence of Non-receptor tyrosine-protein kinase TYK2 (Homo sapiens) (P29597 whole entry, the tested form may be a part): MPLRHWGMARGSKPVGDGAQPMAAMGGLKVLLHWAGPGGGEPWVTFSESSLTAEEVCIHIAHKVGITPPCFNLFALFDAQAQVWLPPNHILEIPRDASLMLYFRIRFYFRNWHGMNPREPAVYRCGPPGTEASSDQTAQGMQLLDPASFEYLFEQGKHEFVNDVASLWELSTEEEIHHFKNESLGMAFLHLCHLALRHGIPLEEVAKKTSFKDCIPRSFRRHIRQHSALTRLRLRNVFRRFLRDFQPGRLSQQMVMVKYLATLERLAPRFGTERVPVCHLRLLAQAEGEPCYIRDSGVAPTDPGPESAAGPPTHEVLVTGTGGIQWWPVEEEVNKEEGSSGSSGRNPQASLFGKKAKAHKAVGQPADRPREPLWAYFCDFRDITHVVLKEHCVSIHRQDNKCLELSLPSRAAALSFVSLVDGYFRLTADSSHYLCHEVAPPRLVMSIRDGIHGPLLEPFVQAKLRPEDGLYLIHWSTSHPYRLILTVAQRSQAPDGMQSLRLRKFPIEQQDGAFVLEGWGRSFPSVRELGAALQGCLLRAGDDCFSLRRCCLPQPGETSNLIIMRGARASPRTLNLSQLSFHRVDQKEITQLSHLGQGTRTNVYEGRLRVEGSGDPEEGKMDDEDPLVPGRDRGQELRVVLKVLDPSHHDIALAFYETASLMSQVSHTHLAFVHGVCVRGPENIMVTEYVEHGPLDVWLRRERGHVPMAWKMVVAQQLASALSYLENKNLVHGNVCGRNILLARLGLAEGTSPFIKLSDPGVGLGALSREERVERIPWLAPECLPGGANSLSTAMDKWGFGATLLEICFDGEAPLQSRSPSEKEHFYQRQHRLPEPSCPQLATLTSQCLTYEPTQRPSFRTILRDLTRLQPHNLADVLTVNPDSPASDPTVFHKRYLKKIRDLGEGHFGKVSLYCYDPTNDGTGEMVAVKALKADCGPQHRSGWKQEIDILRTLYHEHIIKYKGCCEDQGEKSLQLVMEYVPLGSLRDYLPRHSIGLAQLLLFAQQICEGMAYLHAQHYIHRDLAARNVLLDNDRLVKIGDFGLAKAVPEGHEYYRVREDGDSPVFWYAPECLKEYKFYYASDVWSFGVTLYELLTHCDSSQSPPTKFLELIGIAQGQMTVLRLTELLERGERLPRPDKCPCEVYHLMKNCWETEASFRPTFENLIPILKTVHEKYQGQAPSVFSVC
# [25] = molecular target: cGMP-dependent protein kinase 1 (Homo sapiens) (UniProt Q13976); assay: Inhibition of DNA-tagged human PRKG1 assessed as percent of control at 50000 nM by qPCR analysis relative to control
# [26] = molecular target: Serine/threonine-protein kinase SIK1 (Homo sapiens) (UniProt P57059); assay: Inhibition of DNA-tagged human SIK assessed as percent of control at 50000 nM by qPCR analysis relative to control
# [27] = molecular target: Mitogen-activated protein kinase kinase kinase 19 (Homo sapiens) (UniProt Q56UN5); assay: Inhibition of DNA-tagged human YSK4 assessed as percent of control at 50000 nM by qPCR analysis relative to control
# Sequence of Mitogen-activated protein kinase kinase kinase 19 (Homo sapiens) (Q56UN5 whole entry): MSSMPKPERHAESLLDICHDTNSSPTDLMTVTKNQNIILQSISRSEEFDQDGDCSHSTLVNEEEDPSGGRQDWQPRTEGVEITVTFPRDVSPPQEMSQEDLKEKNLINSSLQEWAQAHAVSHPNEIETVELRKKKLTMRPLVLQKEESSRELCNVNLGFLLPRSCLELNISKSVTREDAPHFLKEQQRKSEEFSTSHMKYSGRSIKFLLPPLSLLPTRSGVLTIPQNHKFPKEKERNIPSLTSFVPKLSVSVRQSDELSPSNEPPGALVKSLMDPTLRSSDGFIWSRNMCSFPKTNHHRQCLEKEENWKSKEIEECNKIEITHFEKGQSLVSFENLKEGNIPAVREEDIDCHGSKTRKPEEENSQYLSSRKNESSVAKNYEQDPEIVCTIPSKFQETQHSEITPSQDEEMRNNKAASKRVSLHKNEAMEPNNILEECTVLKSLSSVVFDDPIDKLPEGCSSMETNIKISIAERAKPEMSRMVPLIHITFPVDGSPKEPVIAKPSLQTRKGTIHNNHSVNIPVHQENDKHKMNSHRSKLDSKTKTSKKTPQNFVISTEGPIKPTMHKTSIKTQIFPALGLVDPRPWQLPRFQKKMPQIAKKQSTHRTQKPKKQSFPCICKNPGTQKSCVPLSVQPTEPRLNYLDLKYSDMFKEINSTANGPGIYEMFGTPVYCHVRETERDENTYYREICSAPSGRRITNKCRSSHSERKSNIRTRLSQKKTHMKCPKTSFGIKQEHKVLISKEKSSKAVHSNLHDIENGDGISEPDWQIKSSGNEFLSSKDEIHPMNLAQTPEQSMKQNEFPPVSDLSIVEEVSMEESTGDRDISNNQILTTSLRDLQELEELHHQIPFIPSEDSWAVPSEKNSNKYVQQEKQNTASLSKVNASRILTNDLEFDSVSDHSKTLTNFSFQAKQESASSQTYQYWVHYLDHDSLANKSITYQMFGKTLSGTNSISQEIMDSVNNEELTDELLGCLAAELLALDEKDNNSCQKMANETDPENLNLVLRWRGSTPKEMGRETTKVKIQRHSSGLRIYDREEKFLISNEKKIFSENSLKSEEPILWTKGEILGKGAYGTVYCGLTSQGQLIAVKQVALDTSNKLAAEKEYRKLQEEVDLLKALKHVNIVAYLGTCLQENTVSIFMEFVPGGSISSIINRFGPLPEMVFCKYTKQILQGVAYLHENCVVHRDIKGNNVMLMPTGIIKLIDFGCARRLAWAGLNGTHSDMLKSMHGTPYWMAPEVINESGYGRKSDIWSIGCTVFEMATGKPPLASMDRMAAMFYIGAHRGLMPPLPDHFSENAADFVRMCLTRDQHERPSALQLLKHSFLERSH
# [28] = molecular target: Protein kinase C theta type (Homo sapiens) (UniProt Q04759); assay: Inhibition of DNA-tagged human PRKCQ assessed as percent of control at 50000 nM by qPCR analysis relative to control
# [29] = molecular target: Ribosomal protein S6 kinase alpha-5 (Homo sapiens) (UniProt O75582); assay: Inhibition of DNA-tagged human C-terminal RPS6KA5 kinase domain 2 assessed as percent of control at 50000 nM by qPCR analysis relative to control
smiles,measurement,setting,value
CN1C(=O)/C(=C2/C(=O)Nc3ccccc32)c2ccccc21,Activity,[1],88%
same,Activity,[2],93%
same,Activity,[3],91%
same,Activity,[4],100%
same,Activity,[5],100%
same,Activity,[6],89%
same,Activity,[7],63%
same,Activity,[8],86%
same,Activity,[9],100%
same,Activity,[10],91%
same,Activity,[11],80%
same,Activity,[12],85%
same,Activity,[13],100%
same,Activity,[14],96%
same,Activity,[15],100%
same,Activity,[16],100%
same,Activity,[17],100%
same,Activity,[18],100%
same,Activity,[19],93%
same,Activity,[20],100%
same,Activity,[21],86%
same,Activity,[22],100%
same,Activity,[23],94%
same,Activity,[24],77%
same,Activity,[25],95%
same,Activity,[26],93%
same,Activity,[27],91%
same,Activity,[28],99%
same,Activity,[29],100%
